Patent US20090304692A1, “TRIAZINE COMPOUNDS AS PI3 KINASE AND MTOR INHIBITORS” (Wyeth, priority 2008, published 2009)
Where two headings read alike, the source gives them in different places.

Experiments:
Human mTOR (FLAG-TOR) = Human mTOR (FLAG-TOR) (Homo sapiens, UniProt P42345); test: mTOR kinase assay (DELFIA format, purified enzyme); type: biochemical; details: read-out: IC50 mTOR
[1] = system: human breast MDA-MB-361 tumor cell line; test: In vitro cell culture growth assay (MTS), MDA-MB-361; type: cell-based; details: Homo sapiens, MTS cell growth assay, three days after drug treatment, MDA-MB-361 cells, read-out: IC50 MDA-MB-361
[2] = system: human prostate PC3-mm2 tumor cell line; test: In vitro cell culture growth assay (MTS), PC3-mm2; type: cell-based; details: Homo sapiens, PC3MM2, 72 h, MTS cell growth assay, three days after drug treatment, PC3-mm2 cells; read-out: IC50 PC3-mm2
PI3K-α = PI3K-α (Homo sapiens, UniProt P42336); test: PI3K-alpha fluorescence polarization assay; details: read-out: IC50 PI3Kα
PI3K-γ = PI3K-γ (Homo sapiens, UniProt P48736); test: PI3K-gamma fluorescence polarization assay; details: read-out: IC50 PI3Kγ
Sequence of PI3K-γ (P48736 whole entry, species assumed): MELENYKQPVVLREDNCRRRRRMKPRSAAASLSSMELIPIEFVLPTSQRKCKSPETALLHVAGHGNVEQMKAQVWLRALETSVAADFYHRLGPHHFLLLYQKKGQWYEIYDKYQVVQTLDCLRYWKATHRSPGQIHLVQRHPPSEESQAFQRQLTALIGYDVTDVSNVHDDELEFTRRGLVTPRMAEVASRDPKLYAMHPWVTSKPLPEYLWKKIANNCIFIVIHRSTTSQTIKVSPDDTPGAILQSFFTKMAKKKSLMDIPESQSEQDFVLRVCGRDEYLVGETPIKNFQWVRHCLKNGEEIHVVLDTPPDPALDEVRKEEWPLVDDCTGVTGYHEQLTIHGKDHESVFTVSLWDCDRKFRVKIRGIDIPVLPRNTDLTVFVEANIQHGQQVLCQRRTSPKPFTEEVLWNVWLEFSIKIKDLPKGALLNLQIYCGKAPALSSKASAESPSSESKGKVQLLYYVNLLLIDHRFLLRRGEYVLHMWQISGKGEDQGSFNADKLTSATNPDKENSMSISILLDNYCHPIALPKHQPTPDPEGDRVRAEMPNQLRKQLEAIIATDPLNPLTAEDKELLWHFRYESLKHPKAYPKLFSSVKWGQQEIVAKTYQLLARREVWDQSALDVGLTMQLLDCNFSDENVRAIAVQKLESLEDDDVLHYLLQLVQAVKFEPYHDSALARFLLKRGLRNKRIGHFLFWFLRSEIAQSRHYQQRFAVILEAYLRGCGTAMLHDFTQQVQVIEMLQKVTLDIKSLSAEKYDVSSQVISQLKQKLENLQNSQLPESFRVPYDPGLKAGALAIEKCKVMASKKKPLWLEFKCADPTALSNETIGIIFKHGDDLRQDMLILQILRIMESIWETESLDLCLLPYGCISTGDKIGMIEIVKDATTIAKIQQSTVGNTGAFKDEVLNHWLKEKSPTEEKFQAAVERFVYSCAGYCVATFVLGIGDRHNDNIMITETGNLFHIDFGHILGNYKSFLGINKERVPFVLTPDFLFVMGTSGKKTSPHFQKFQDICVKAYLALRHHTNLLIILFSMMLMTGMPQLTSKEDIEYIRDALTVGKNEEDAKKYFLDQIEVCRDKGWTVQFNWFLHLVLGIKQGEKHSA

Sequence of Human mTOR (FLAG-TOR) (P42345 1360-2549 limits assumed): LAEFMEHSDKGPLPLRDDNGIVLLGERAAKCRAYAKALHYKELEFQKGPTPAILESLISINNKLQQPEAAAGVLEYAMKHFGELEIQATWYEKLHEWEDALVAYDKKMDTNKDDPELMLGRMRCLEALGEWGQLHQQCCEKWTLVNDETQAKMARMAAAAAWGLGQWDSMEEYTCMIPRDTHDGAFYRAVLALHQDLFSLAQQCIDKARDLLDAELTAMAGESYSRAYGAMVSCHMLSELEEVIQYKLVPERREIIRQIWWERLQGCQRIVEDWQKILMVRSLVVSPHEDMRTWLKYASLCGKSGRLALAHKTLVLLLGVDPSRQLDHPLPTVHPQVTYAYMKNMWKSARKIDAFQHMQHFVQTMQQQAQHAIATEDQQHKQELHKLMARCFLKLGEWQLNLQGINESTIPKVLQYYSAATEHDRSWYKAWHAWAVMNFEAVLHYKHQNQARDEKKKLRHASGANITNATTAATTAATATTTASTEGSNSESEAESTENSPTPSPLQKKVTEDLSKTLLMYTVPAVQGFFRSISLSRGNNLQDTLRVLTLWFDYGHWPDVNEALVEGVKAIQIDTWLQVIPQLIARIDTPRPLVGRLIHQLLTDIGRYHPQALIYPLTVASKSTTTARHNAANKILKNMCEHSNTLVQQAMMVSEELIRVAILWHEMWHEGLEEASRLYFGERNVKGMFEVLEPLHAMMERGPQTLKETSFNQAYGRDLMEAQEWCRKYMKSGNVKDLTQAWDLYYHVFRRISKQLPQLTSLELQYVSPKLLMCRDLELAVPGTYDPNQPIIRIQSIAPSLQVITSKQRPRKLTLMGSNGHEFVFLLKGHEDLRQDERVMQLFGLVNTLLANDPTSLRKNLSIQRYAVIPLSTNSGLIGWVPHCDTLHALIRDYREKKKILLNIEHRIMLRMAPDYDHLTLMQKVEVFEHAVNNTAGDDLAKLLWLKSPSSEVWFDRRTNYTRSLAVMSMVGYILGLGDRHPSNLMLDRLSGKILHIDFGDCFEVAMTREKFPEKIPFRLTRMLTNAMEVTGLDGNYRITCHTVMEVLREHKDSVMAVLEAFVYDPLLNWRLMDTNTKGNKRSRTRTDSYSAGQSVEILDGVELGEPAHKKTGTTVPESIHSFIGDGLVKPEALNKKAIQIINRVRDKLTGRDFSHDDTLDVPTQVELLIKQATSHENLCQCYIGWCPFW
Sequence of PI3K-α (P42336 whole entry, species assumed): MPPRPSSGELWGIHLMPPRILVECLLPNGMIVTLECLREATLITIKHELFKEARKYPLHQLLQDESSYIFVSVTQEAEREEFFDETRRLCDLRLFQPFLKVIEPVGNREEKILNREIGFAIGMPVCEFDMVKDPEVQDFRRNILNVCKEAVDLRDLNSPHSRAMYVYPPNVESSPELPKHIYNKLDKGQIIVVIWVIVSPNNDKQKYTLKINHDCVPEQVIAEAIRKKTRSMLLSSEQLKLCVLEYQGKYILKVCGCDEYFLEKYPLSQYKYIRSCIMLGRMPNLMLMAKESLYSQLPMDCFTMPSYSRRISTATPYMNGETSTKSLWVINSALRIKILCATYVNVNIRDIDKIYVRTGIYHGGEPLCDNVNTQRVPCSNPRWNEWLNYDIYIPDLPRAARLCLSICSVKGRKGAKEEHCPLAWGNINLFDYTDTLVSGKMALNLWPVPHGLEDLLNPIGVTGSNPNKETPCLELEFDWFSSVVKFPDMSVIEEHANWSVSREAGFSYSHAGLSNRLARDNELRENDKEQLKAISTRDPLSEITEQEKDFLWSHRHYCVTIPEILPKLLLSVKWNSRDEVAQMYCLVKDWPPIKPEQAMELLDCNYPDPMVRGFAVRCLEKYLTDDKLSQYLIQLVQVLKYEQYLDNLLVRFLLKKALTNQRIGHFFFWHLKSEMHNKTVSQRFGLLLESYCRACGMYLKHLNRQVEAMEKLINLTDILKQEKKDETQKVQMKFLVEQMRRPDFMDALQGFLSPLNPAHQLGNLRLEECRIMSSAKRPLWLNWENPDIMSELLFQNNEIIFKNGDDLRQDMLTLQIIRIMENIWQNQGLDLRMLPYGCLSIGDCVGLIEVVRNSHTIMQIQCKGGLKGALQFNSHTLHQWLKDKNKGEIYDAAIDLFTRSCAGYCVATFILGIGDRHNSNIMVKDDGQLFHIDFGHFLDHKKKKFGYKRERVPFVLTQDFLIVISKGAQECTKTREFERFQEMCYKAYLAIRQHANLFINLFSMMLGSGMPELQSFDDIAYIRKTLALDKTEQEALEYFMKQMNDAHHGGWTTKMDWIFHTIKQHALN
Sequence of PI3K-α (P27986 whole entry partner, species assumed): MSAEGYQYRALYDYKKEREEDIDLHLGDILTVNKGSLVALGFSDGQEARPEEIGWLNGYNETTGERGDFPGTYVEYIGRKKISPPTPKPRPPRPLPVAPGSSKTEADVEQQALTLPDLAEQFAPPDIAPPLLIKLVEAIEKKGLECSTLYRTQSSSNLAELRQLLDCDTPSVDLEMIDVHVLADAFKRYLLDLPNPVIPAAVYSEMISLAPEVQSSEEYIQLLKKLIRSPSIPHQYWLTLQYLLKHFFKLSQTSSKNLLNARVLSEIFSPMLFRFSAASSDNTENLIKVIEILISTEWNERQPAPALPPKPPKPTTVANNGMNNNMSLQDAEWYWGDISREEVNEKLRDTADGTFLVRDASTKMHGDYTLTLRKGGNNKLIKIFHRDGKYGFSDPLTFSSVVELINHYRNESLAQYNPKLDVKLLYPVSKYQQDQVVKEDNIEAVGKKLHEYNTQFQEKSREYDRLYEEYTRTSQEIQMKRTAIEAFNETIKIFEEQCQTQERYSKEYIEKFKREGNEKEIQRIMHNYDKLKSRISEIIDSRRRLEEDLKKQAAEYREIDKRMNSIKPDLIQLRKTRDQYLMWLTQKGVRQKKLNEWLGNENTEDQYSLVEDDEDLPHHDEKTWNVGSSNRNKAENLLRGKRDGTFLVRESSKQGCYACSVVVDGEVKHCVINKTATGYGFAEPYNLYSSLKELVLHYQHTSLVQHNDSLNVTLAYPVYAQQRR

SMILES | IC50 (Human mTOR (FLAG-TOR)) [nM] | IC50 ([1]; 72 h) [nM] | IC50 [2] [nM] | IC50 (PI3K-α) [nM] | IC50 (PI3K-γ) [nM] | IC50 ([1]; MDA-MB-361, 72 h) [nM]
COCCNC(=O)c1ccc(NC(=O)Nc2ccc(-c3nc(-c4ccccc4)nc(N4CCOCC4)n3)cc2)cc1 [Example 551, N-(2-methoxyethyl)-4-({[4-(4-morpholin-4-yl-6-phenyl-1,3,5-triazin-2-yl)phenyl]carbamoyl}amino)benzamide] | 10 | 106 | 270 | 24 | 118 | 
O=C(Nc1ccc(C(=O)NCCN2CCCC2)cc1)Nc1ccc(-c2nc(-c3ccccc3)nc(N3CCOCC3)n2)cc1 [Example 552, 4-({[4-(4-morpholin-4-yl-6-phenyl-1,3,5-triazin-2-yl)phenyl]carbamoyl}amino)-N-(2-pyrrolidin-1-ylethyl)benzamide] | 3.55 | 105 | 243 | 11.5 | 127 | 
Cc1ccc(-c2nc(-c3ccc(NC(=O)Nc4ccc(C(=O)NCCCN(C)C)cc4)cc3)nc(N3CCOCC3)n2)cc1 [Example 554, N-[3-(dimethylamino)propyl]-4-[({4-[4-(4-methylphenyl)-6-morpholin-4-yl-1,3,5-triazin-2-yl]phenyl}carbamoyl)amino]benzamide] | 11.9 | 521 | > 1000 | 15 | 156 | 
CN(C)CCCNC(=O)c1ccc(NC(=O)Nc2ccc(-c3nc(-c4ccccc4)nc(N4CCOCC4)n3)cc2)cc1 [Example 556, N-[3-(dimethylamino)propyl]-4-({[4-(4-morpholin-4-yl-6-phenyl-1,3,5-triazin-2-yl)phenyl]carbamoyl}amino)benzamide] | 4.4 | 128 | 379 | 8.5 | 54 | 
O=C(Nc1ccncc1)Nc1ccc(-c2nc(-c3cccs3)nc(N3CCOCC3)n2)cc1 [Example 557, 1-{4-[4-morpholin-4-yl-6-(2-thienyl)-1,3,5-triazin-2-yl]phenyl}-3-pyridin-4-ylurea] | 8.55 | 34 | 31 | 18 | 64 | 
O=C(Nc1ccc(C(=O)O)cc1)Nc1ccc(-c2nc(-c3cccs3)nc(N3CCOCC3)n2)cc1 [Example 558, 4-[({4-[4-morpholin-4-yl-6-(2-thienyl)-1,3,5-triazin-2-yl]phenyl}carbamoyl)amino]benzoic acid] | 6.1 | 751 | 939 | 17 | 41 | 
CN1CCN(C(=O)c2ccc(NC(=O)Nc3ccc(-c4nc(-c5cccs5)nc(N5CCOCC5)n4)cc3)cc2)CC1 [Example 559, 1-{4-[(4-methylpiperazin-1-yl)carbonyl]phenyl}-3-{4-[4-morpholin-4-yl-6-(2-thienyl)-1,3,5-triazin-2-yl]phenyl}urea] | 10.1 |  | 149 | 2 | 13.5 | 8
COCCNC(=O)c1ccc(NC(=O)Nc2ccc(-c3nc(-c4cccs4)nc(N4CCOCC4)n3)cc2)cc1 [Example 561, N-(2-methoxyethyl)-4-[({4-[4-morpholin-4-yl-6-(2-thienyl)-1,3,5-triazin-2-yl]phenyl}carbamoyl)amino]benzamide] | 6 | 66 | 218 | 11.5 | 59 | 
CN(C)CCN(C)C(=O)c1ccc(NC(=O)Nc2ccc(-c3nc(-c4cccs4)nc(N4CCOCC4)n3)cc2)cc1 [Example 562, N-[2-(dimethylamino)ethyl]-N-methyl-4-[({4-[4-morpholin-4-yl-6-(2-thienyl)-1,3,5-triazin-2-yl]phenyl}carbamoyl)amino]benzamide] | 4 | 3 | 93 | 1 | 10.5 | 
CN(C)CCNC(=O)c1ccc(NC(=O)Nc2ccc(-c3nc(-c4cccs4)nc(N4CCOCC4)n3)cc2)cc1 [Example 563, N-[2-(dimethylamino)ethyl]-4-[({4-[4-morpholin-4-yl-6-(2-thienyl)-1,3,5-triazin-2-yl]phenyl}carbamoyl)amino]benzamide] | 3 | 10 | 171 | 2.5 | 33.5 | 
C[C@H]1COCCN1c1nc(-c2ccc(NC(=O)Nc3ccc(C(=O)N(C)CCN(C)C)cc3)cc2)nc(N2CCOC[C@@H]2C)n1 [Example 564, 4-{[(4-{4,6-bis[(3S)-3-methylmorpholin-4-yl]-1,3,5-triazin-2-yl}phenyl)carbamoyl]amino}-N-[2-(dimethylamino)ethyl]-N-methylbenzamide] | 1 | 1 | 7 | 0.6 | 16.5 | 
C[C@H]1COCCN1c1nc(-c2ccc(NC(=O)Nc3ccc(C(=O)N4CCN(C)CC4)cc3)cc2)nc(N2CCOC[C@@H]2C)n1 [Example 565, 1-(4-{4,6-bis[(3S)-3-methylmorpholin-4-yl]-1,3,5-triazin-2-yl}phenyl)-3-{4-[(4-methylpiperazin-1-yl)carbonyl]phenyl}urea] | 1 | 9 | 27 | 4.1 | 38 | 
O=C(Nc1ccncc1)Nc1ccc(-c2nc(N3CCCOCC3)nc(N3CCOCC3)n2)cc1 [Example 566, 1-{4-[4-morpholin-4-yl-6-(1,4-oxazepan-4-yl)-1,3,5-triazin-2-yl]phenyl}-3-pyridin-4-ylurea] | 2 | 28 | 55 | 2.6 | 18 | 
COC(=O)c1ccc(NC(=O)Nc2ccc(-c3nc(N4CCCOCC4)nc(N4CCOCC4)n3)cc2)cc1 [Example 567, methyl 4-[({4-[4-morpholin-4-yl-6-(1,4-oxazepan-4-yl)-1,3,5-triazin-2-yl]phenyl}carbamoyl)amino]benzoate] | 2 |  | 130 | 14.5 | 90 | 106
CN(C)CCCNC(=O)c1ccc(NC(=O)Nc2ccc(-c3nc(-c4cccs4)nc(N4CCOCC4)n3)cc2)cc1 [Example 570, N-[3-(dimethylamino)propyl]-4-[({4-[4-morpholin-4-yl-6-(2-thienyl)-1,3,5-triazin-2-yl]phenyl}carbamoyl)amino]benzamide] | 13 | 28 | 344 | 5.5 | 48 | 
COCCNC(=O)c1ccc(NC(=O)Nc2ccc(-c3nc(N4CCCOCC4)nc(N4CCOCC4)n3)cc2)cc1 [Example 574, N-(2-methoxyethyl)-4-[({4-[4-morpholin-4-yl-6-(1,4-oxazepan-4-yl)-1,3,5-triazin-2-yl]phenyl}carbamoyl)amino]benzamide] | 6 | 6 | 25 | 1 | 12.5 | 
CCN1CCN(C(=O)c2ccc(NC(=O)Nc3ccc(-c4nc(-c5cccs5)nc(N5CCOCC5)n4)cc3)cc2)CC1 [Example 575, 1-{4-[(4-ethylpiperazin-1-yl)carbonyl]phenyl}-3-{4-[4-morpholin-4-yl-6-(2-thienyl)-1,3,5-triazin-2-yl]phenyl}urea] | 15 | 15 | 242 | 3 | 19 | 
O=C(Nc1ccncc1)Nc1ccc(-c2nc(N3CCCCC3)nc(N3CCOCC3)n2)cc1 [Example 592, 1-[4-(4-morpholin-4-yl-6-piperidin-1-yl-1,3,5-triazin-2-yl)phenyl]-3-pyridin-4-ylurea] | 9 | 239 | 718 | 25.5 | 122 | 
O=C(Nc1ccc(C(=O)O)cc1)Nc1ccc(-c2nc(N3CCCCC3)nc(N3CCOCC3)n2)cc1 [Example 593, 4-({[4-(4-morpholin-4-yl-6-piperidin-1-yl-1,3,5-triazin-2-yl)phenyl]carbamoyl}amino)benzoic acid] | 12 |  | > 1000 | 40 | 143 | > 1000
CCN1CCN(C(=O)c2ccc(NC(=O)Nc3ccc(-c4nc(N5CCCCC5)nc(N5CCOCC5)n4)cc3)cc2)CC1 [Example 596, 1-{4-[(4-ethylpiperazin-1-yl)carbonyl]phenyl}-3-[4-(4-morpholin-4-yl-6-piperidin-1-yl-1,3,5-triazin-2-yl)phenyl]urea] | 13 |  | 155 | 5 | 40.5 | 26
CN1CCN(C(=O)c2ccc(NC(=O)Nc3ccc(-c4nc(N5CCCCC5)nc(N5CCOCC5)n4)cc3)cc2)CC1 [Example 597, 1-{4-[(4-methylpiperazin-1-yl)carbonyl]phenyl}-3-[4-(4-morpholin-4-yl-6-piperidin-1-yl-1,3,5-triazin-2-yl)phenyl]urea] | 11 |  | 229 | 5 | 58 | 45
CN(C)C1CCN(C(=O)c2ccc(NC(=O)Nc3ccc(-c4nc(N5CCCCC5)nc(N5CCOCC5)n4)cc3)cc2)CC1 [Example 598, 1-(4-{[4-(dimethylamino)piperidin-1-yl]carbonyl}phenyl)-3-[4-(4-morpholin-4-yl-6-piperidin-1-yl-1,3,5-triazin-2-yl)phenyl]urea] | 10 |  | 214 | 5.5 | 40 | 22
